{"source": "ChEMBL document CHEMBL1157368", "about": "“Mass spectrometry-based systems approach for identification of inhibitors of Plasmodium falciparum fatty acid synthase” (Antimicrob Agents Chemother, 2007)", "key": {"[1]": {"molecular_target": "T1, Fatty acid synthase (Plasmodium falciparum) (UniProt Q965D7)", "T1 sequence (whole entry)": "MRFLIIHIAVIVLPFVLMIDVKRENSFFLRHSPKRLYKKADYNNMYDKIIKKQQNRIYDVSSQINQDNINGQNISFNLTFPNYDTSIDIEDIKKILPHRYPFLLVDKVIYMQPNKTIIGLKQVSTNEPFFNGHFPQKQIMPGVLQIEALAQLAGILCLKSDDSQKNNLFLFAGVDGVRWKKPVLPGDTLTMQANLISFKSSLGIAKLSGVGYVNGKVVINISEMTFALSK", "assay": "Inhibition of Plasmodium falciparum FabZ assessed as trans-2-octenoyl-acyl carrier protein level by MALDI-TOF mass spectrometry"}, "[2]": {"system": "Plasmodium falciparum", "assay": "Inhibition of Plasmodium falciparum FabB/FabF assessed as C6-acyl carrier protein level by MALDI-TOF mass spectrometry"}, "[3]": {"system": "Plasmodium falciparum", "assay": "Antiparasitic activity against Plasmodium falciparum", "format": "functional, organism-based"}, "[4]": {"molecular_target": "T2, Enoyl-acyl-carrier protein reductase (Plasmodium falciparum, UniProt Q965D5)", "T2 sequence (Q965D5 whole entry)": "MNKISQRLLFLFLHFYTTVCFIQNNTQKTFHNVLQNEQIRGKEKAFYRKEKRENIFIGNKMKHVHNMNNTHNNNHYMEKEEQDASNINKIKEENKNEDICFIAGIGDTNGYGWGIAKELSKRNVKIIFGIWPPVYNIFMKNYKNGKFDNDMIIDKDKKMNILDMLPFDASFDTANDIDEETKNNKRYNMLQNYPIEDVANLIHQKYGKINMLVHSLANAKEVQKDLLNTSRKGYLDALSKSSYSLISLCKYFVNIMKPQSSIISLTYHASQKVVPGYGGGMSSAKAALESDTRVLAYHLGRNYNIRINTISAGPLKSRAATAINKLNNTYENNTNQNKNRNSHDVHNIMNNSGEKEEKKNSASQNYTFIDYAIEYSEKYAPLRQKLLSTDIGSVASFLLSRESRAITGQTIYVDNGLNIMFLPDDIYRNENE", "assay": "Inhibition of Plasmodium falciparum recombinant FabI"}, "[5]": {"assay": "Inhibition of Plasmodium falciparum recombinant FabI A217V mutant"}, "[6]": {"system": "Plasmodium falciparum", "assay": "Antiparasitic activity against Plasmodium falciparum in RBCs", "format": "functional, organism-based"}}, "note": "Calls of active or inactive are those of the source. The rule behind the calls is not given here."}
{"smiles": "O=C(CC(=O)C(F)(F)F)c1ccc([N+](=O)[O-])cc1", "values": [{"measurement": "Activity", "setting": "[1]", "value": "Active"}]}
{"smiles": "Oc1ccc(Cl)cc1Oc1ccc(Cl)c2cccnc12", "values": [{"measurement": "Activity", "setting": "[1]", "value": "Active"}]}
{"smiles": "C/C=C/C/C=C/CCC(=O)[C@H]1O[C@H]1C(N)=O", "note": "[CERULENIN]", "values": [{"measurement": "Activity", "setting": "[2]", "value": "Active"}, {"measurement": "IC50", "setting": "[3]", "value": 20000, "unit": "nM"}]}
{"smiles": "Oc1cc(Cl)ccc1Oc1ccc(Cl)cc1Cl", "note": "[TRICLOSAN]", "values": [{"measurement": "IC50", "setting": "[4]", "value": 70, "unit": "nM"}, {"measurement": "Ki", "setting": "[5]", "value": 232, "unit": "nM"}, {"measurement": "IC50", "setting": "[6]", "value": 700, "unit": "nM"}]}
